Results on 2 compounds are retold here after patent publication US20130065847A1, “ENDOPARASITICIDAL COMPOSITIONS” (priority 2010, published 2013).

This test relates to Cooperia Curticei. The test can be described thus: In-vivo test on Cooperia curticei on sheep using peroral application. The settings on record: Monepantel 0.625 mg/kg, Abamectin 0.05 mg/kg; for Efficacy [%]: 100×(C−T)/C of worm count means vs untreated control, days 14-17; for Efficacy [%] / log [Worm count] [geometric mean value] / Reduction worm count [factor] / Reduction log [worm count]: L4 stage, oral, combination 0.625 & 0.05 mg/kg; for Worm count [Geometric mean value]: experimentally induced infection, treated at L4 stage, single oral application, combination 0.625 & 0.05 mg/kg bodyweight, slaughter days 14-17 after treatment, untreated control 4266; for log [Worm count] [geometric mean value]: log transformed worm counts, untreated control 3.631; for Reduction worm count [factor]: observed; for Reduction worm count [factor] / Reduction log [worm count]: vs untreated control. From the text:
In-Vivo Test on Cooperia Curticei on Sheep Using Peroral Application
The study concerned a blinded parallel-group efficacy study against the L4 stage of the subject nematodes. The experimental induced worm burdens of monepantel/abamectin combination treated animals were compared to those of an untreated control group and sheep treated animals with either monepantel or abamectin mono-formulations.
To this end the required larvae were generated first of all through culturing of characterized field isolates. Each animal then received the same dose of L3 (infective) larvae, and their larvae burdens were allowed time to mature. Once the larvae reached the L4 stage, the sheep were allocated to treatment groups 1, 2, 3 and 4 and treated as defined in the Table below:
Oral application using the above described formulations: […]
Two weeks after treatment (days 14-17) the sheep were slaughtered, their gastro-intestinal tracts recovered and processed for enumeration of total worm burdens. The primary measure of efficacy was calculated from the mean worm reduction in groups 2-4 when compared to the untreated control group 1. Efficacies were calculated using the formula
wherein C and T are the worm count means of the Control and Treated groups, respectively.
To this end, worm counts were log transformed as follows: […]

For `C[C@](C#N)(COc1cc(C#N)ccc1C(F)(F)F)NC(=O)c1ccc(SC(F)(F)F)cc1` [Monepantel, N-((1S)-1-cyano-2-(5-cyano-2-trifluoro-methylphenoxy)-1-methylethyl)-4-trifluoromethylsulfanylbenzamide], the “Efficacy [%]” value came to 66.0%, the “Worm count [Geometric mean value]” value was 1453, the “log [Worm count] [geometric mean value]” value was determined as 3.165 and the “Reduction worm count [factor]” value was approximately 2.9 factor. The “Reduction log [worm count]” value is reported as −0.466.

For abamectin, the “Efficacy [%]” value is 68.3%, the “Worm count [Geometric mean value]” value is reported as 1352, the “log [Worm count] [geometric mean value]” value was 3.134 and the “Reduction worm count [factor]” value is on record as approximately 3.1 factor. The “Reduction log [worm count]” value is given as −0.497.
